What was measured:
E. coli 1F28 [1] = type: cell-based; details: E. coli 1F28 and 1A34; 10 mM in MHB
pepsin = pepsin 10 mg/mL, 1 h preincubation; residual MIC against E. coli 1F28
Method: Thermal, pH and proteolytic stability. WRK-12 was preincubated at different temperatures (from 25 to 121 °C), pH (from 2 to 12) or proteases (pepsin, trypsin and papain, final concentration 10 mg/mL) for 1 h. Samples after pH treatment were readjusted to pH = 7.2 to determine the residual antibacterial activity by MIC tests. Samples after proteases treatment were heated at 80 °C for 30 min, and centrifuged at 13,000× g for 30 min to precipitate proteases, and the residual antibacterial activity of supernatants was tested by MIC analysis.

E. coli 1F28 [2] = experiment: ROS measurements (DCFH-DA); type: cell-based; details: 0 to 128 μg/mL, 60 min
Method: 2′,7′-Dichlorodihydrofluorescein diacetate (DCFH-DA, 10 μM) was incubated with E. coli 1F28 cells for 30 min. After washing with 0.01 M PBS, the probed cells were mixed with WRK-12 (0 to 128 μg/mL) or colistin (128 μg/mL) for 60 min. The ROS levels were assessed by monitoring the fluorescence intensity (λexcitation = 488 nm, λemission = 525 nm) using a Microplate reader (Tecan, Männedorf, Switzerland).

E. coli 1F28 biofilm = experiment: Prevention of biofilm formation (crystal violet); type: cell-based; details: 24 h
Method: The prevention of biofilm formation was assessed as described previously. Briefly, bacteria (1 × 10^5 CFUs per mL) were exposed to WRK-12 solutions (with final concentrations ranging from 0.25 to 32 μg/mL). As an untreated control, bacteria were exposed to MHB without drugs. After 24 h incubation at 37 °C in a humidified atmosphere, planktonic bacteria were removed by phosphate buffer solution (PBS). Biofilms were fixed with methanol for 15 min, then sucked out the fixative and air dry naturally. Then, biofilms were stained with 0.1% crystal violet for 15 min, washed and dried naturally. Finally, 33% acetic acid was used to dissolve crystal violet. The optical density at 570 nm was determined as a measure of biofilm mass.

## Ac-WRLRWKTRWRLK-NH2 [WRK-12]
E. coli 1F28 [1]
  activity in the presence of monovalent cations (Na^+ and K^+): not any loss of activity
pepsin
  proteolytic stability: resistant
E. coli 1F28 [2]
  ROS production, DCFH-DA fluorescence: triggered the production of ROS in a concentration-dependent manner
E. coli 1F28 biofilm; 0.5 μg/mL, 37 °C, crystal violet OD570
  inhibition of biofilm formation: significant inhibition effect
E. coli 1F28 biofilm; 2 μg/mL or higher, crystal violet staining
  biofilm mass: drastically reduced

Reference: paper PMC7564829, “Potent Broad-Spectrum Antibacterial Activity of Amphiphilic Peptides against Multidrug-Resistant Bacteria” (Microorganisms, 2020)
